# ± gives the standard deviation of the averaged measurements.
# Key:
# Experiment in all cases: relative cell number vs DMSO control (72 h) (% of DMSO); higher = less growth inhibition (more cells)
# Settings in all cases: sgRNA knockout: sgNT
# MDA-MB-231 = system: MDA-MB-231
# Experimental: (§1)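 QMAP-Seq: a pool of 5 breast cancer cell lines (ZR-75-1, SKBR3, HCC-38, MDA-MB-231, BT-20), each carrying 12 doxycycline-inducible Cas9 sgRNA perturbations (11 knockouts plus non-targeting sgNT), was treated with compounds for 72 h at four 10-fold doses (10 nM-10 uM or 1 nM-1 uM range). Barcodes were amplified and sequenced, and cell number was interpolated from 293T spike-in standard curves. The result is expressed as % of the median of DMSO wells. Two biological replicates.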
# BT-20 = system: BT-20
# Experimental: as §1
# SKBR3 = system: SKBR3
# Experimental: as §1
# ZR-75-1 = system: ZR-75-1
# Experimental: as §1
# HCC-38 = system: HCC-38
# Experimental: as §1
Compound,relative cell number (MDA-MB-231; 10 nM),relative cell number (MDA-MB-231; 100 nM),relative cell number (MDA-MB-231; 1000 nM),relative cell number (MDA-MB-231; 10000 nM),relative cell number (BT-20; 10 nM),relative cell number (BT-20; 100 nM),relative cell number (BT-20; 1000 nM),relative cell number (BT-20; 10000 nM),relative cell number (SKBR3; 10 nM),relative cell number (SKBR3; 100 nM),relative cell number (SKBR3; 1000 nM),relative cell number (SKBR3; 10000 nM),relative cell number (ZR-75-1; 10 nM),relative cell number (ZR-75-1; 100 nM),relative cell number (ZR-75-1; 1000 nM),relative cell number (ZR-75-1; 10000 nM),relative cell number (HCC-38; 10 nM),relative cell number (HCC-38; 100 nM),relative cell number (HCC-38; 1000 nM),relative cell number (HCC-38; 10000 nM),relative cell number (MDA-MB-231; 1 nM),relative cell number (BT-20; 1 nM),relative cell number (SKBR3; 1 nM),relative cell number (ZR-75-1; 1 nM),relative cell number (HCC-38; 1 nM)
Cc1ccc(C(=O)Cn2c3c(sc2=N)CCCC3)cc1 [PifithrinAlpha],114 ± 41,85.3 ± 57,94.3 ± 30,57.2 ± 3.8,135 ± 2.2,95.61 ± 0.61,103 ± 1.8,77.5 ± 1.6,133 ± 10,84.2 ± 16,85.6 ± 2.5,67.1 ± 6.8,121 ± 13,90.9 ± 20,61.5 ± 23,37.7 ± 11,91.7 ± 2.4,91.4 ± 4.6,83.2 ± 14,90.2 ± 8.3,,,,,
c1ccc2c(Oc3nc(Nc4ccc(N5CCOCC5)cc4)c4ncn(C5CCCCC5)c4n3)cccc2c1 [Purmorphamine],95.7 ± 9.6,75.6 ± 12,97 ± 66,52 ± 8.8,84.2 ± 13,99.65 ± 0.55,85.43 ± 0.29,79.3 ± 11,96.9 ± 34,124 ± 43,75.9 ± 29,51.1 ± 11,97.6 ± 49,84.6 ± 39,92.7 ± 11,52.3 ± 1.9,99.2 ± 3.6,95.6 ± 7.1,90.2 ± 1.9,71.8 ± 6.4,,,,,
O=C(O)C(Cc1c[nH]c2ccccc12)N1C(=O)c2ccccc2C1=O (stereo not given) [RG108],96.8 ± 28,96.5 ± 4,80.5 ± 17,79.7 ± 30,82.3 ± 16,70.3 ± 4.6,102 ± 4.9,102 ± 14,97.1 ± 11,64.7 ± 21,81 ± 16,73.2 ± 5.8,94.8 ± 3.9,76.2 ± 6.3,98.5 ± 2.5,71.4 ± 41,87.6 ± 8,88.2 ± 2.6,83.03 ± 0.26,97.2 ± 1.7,,,,,
CNC(=O)c1cc(Oc2ccc(NC(=O)Nc3ccc(Cl)c(C(F)(F)F)c3)c(F)c2)ccn1 [Regorafenib],102 ± 13,114.3 ± 0.95,94.3 ± 26,32.7 ± 7.6,94.2 ± 7.3,94.9 ± 19,116 ± 46,42.7 ± 9.8,84.4 ± 8.2,98.8 ± 11,101 ± 16,38.2 ± 5,81.3 ± 52,68.8 ± 21,98.2 ± 40,22.1 ± 1.5,105.7 ± 0.71,113 ± 7.7,110 ± 2.3,61.9 ± 11,,,,,
COc1cc(OC)c(/C=C/S(=O)(=O)Cc2ccc(OC)c(NCC(=O)O)c2)c(OC)c1 [Rigosertib],97.2 ± 1.3,94.6 ± 9.7,22.9 ± 3.4,21.6 ± 4.6,96.5 ± 1.7,70.2 ± 4,29.8 ± 11,29.5 ± 3.1,88.9 ± 21,5.08 ± 2.9,11 ± 1,11.1 ± 1.8,115 ± 13,18.8 ± 0.89,16.6 ± 2.9,16.3 ± 4.1,96.39 ± 0.69,44.2 ± 2.3,26.9 ± 2.6,24.8 ± 2.4,,,,,
CCc1c2c(nc3ccc(O)cc13)-c1cc3c(c(=O)n1C2)COC(=O)[C@]3(O)CC [SN38],38 ± 19,21.8 ± 3.3,19.5 ± 2,,77.6 ± 9.2,45.3 ± 2.9,31.9 ± 5.3,,35 ± 16,23.2 ± 7.1,25 ± 0.91,,39.7 ± 5.6,36.2 ± 4.4,25.4 ± 4.1,,35.7 ± 5.1,19.6 ± 4.8,14.5 ± 6,,111 ± 8.8,90.7 ± 2,67.7 ± 30,57.1 ± 2.3,97.2 ± 7.5
CC(C)(C)c1cnc(CSc2cnc(NC(=O)C3CCNCC3)s2)o1 [SNS032],106 ± 3.3,75.8 ± 13,10 ± 2.3,12 ± 1.4,116 ± 11,79.3 ± 15,19.7 ± 0.32,34.4 ± 1.1,72.7 ± 6,89.5 ± 12,7.96 ± 5,14.9 ± 1.1,99.8 ± 5,85.6 ± 9.4,9.44 ± 2.4,28.7 ± 4,100 ± 19,81.3 ± 2.6,17.3 ± 1.6,27.8 ± 0.81,,,,,
CC(=O)Nc1nc(C)c(S(=O)(=O)Nc2ccc(C(O)(C(F)(F)F)C(F)(F)F)cc2)s1 [SR1001],117 ± 5.5,123 ± 15,106 ± 12,118 ± 29,111 ± 12,92.4 ± 17,97.8 ± 18,116 ± 32,104 ± 4.2,87.5 ± 13,120 ± 17,121 ± 3.7,108 ± 41,80.6 ± 15,82.9 ± 26,113 ± 64,91.5 ± 2.2,105 ± 5.6,111.7 ± 0.68,109 ± 16,,,,,
CC(C)(C)c1ccc(S(=O)(=O)NCc2ccc(C(=O)Nc3cccnc3)cc2)cc1 [STF31],110 ± 16,93.4 ± 15,61.7 ± 12,27.3 ± 3.5,101 ± 4.2,96.7 ± 4.5,85.6 ± 20,72.8 ± 18,97.4 ± 8.6,83.52 ± 0.49,74.8 ± 10,44.1 ± 5.7,112 ± 27,92.7 ± 8,50.2 ± 2,63.1 ± 33,90.7 ± 9.9,82.5 ± 12,93.2 ± 7.9,76.6 ± 10,,,,,
CN1CCN(CCOc2cc(OC3CCOCC3)c3c(Nc4c(Cl)ccc5c4OCO5)ncnc3c2)CC1 [Saracatinib],84.1 ± 37,70.3 ± 5.9,64.1 ± 5.6,33.9 ± 17,90.5 ± 32,85.8 ± 15,73.7 ± 11,48.3 ± 18,85.4 ± 45,95.9 ± 16,62.9 ± 18,32.6 ± 8,77.5 ± 1.3,97.6 ± 53,92.6 ± 28,48.2 ± 22,80.8 ± 18,87 ± 10,78.8 ± 13,70.5 ± 12,,,,,
Cn1cnc2c(F)c(Nc3ccc(Br)cc3Cl)c(C(=O)NOCCO)cc21 [Selumetinib],88.9 ± 25,74.2 ± 37,96.3 ± 23,57.1 ± 36,80.6 ± 8.9,67 ± 3.8,99.2 ± 31,80.9 ± 20,97.8 ± 51,90.1 ± 60,103 ± 8.6,73.3 ± 5.1,71 ± 10,67 ± 25,67.5 ± 21,59.2 ± 5.8,96.6 ± 6.1,85.3 ± 4.4,84.4 ± 8.8,92.3 ± 3.6,,,,,
CC(C)[C@H](O)C(=O)N[C@@H](C)C(=O)N[C@@H]1C(=O)N(C)CCc2ccccc21 [Semagacestat],126 ± 5.3,83.5 ± 15,91.7 ± 11,96.9 ± 12,92.3 ± 13,86.5 ± 12,113 ± 9.9,113 ± 23,112 ± 42,83.1 ± 31,72.2 ± 6.8,107 ± 42,112 ± 22,92 ± 28,89.7 ± 24,132 ± 19,107 ± 6.6,107 ± 4.2,118 ± 3.2,84.4 ± 1.2,,,,,

# From the supplement of paper PMC7661543
